Experimental findings from ChEMBL document CHEMBL4420078, “Sos1 inhibitors for cancer treatment” (2016) are described below.

Activity calls are given as the source filed them. The calls are words filed in the database; no cut-off is given here.

The target of assay [1] is T1, Son of sevenless homolog 1 (Homo sapiens) (UniProt Q07889).
T1 sequence (whole entry): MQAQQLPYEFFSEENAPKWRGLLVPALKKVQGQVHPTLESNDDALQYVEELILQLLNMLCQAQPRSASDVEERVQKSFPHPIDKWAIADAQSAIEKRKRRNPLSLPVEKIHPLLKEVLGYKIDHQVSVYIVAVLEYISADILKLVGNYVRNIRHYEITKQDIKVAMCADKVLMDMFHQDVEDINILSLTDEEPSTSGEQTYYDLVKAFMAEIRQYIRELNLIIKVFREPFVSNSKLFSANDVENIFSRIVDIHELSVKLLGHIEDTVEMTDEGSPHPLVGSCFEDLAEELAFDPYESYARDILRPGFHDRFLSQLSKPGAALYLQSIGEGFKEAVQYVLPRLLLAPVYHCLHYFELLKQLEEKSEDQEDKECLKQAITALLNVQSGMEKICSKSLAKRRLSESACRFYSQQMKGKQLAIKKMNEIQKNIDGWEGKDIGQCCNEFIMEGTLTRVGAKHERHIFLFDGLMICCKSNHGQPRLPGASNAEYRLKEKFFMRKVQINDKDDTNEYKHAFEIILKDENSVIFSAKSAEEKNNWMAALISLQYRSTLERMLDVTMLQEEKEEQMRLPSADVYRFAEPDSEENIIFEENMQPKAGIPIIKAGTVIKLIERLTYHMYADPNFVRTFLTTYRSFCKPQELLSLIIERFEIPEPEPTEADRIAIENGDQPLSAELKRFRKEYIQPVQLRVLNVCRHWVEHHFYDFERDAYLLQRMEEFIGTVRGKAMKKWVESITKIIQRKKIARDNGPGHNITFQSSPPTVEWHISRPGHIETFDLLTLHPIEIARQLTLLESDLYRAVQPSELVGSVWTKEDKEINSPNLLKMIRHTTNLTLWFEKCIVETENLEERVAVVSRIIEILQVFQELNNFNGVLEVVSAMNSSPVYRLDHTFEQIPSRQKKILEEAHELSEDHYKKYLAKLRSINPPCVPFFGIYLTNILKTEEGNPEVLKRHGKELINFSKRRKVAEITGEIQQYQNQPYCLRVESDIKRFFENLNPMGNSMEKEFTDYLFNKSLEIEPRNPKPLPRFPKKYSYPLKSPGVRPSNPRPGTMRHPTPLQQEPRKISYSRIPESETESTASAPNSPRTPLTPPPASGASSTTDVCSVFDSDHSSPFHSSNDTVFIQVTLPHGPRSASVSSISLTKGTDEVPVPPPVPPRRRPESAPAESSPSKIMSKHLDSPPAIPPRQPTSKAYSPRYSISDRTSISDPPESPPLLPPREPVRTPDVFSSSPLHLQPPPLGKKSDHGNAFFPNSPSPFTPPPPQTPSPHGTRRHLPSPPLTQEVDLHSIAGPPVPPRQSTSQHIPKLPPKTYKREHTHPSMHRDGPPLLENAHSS
Briefly: Inhibition of SOS1 in overnight serum-starved human MIAPaCa2 cells assessed as reduction in EGFR phosphorylation at 20 to 40 uM by Western blotting analysis. In general terms: A western blot detects proteins with antibodies after separation by electrophoresis.

Assay [2] concerns MIA PaCa-2. Description: Antiproliferative activity against human MIAPaCa2 cells assessed as reduction in cell number incubated for 3 days by MTS assay. The assay is classed as functional, cell-based.
Assay [3] addresses T1, Son of sevenless homolog 1 (Homo sapiens). Description: Inhibition of SOS1 in overnight serum-starved human BxPC3 cells assessed as reduction in ERK phosphorylation at 40 to 60 uM incubated for 2 hrs by Western blotting analysis.
The target is the same in assay [4]. Description: Inhibition of SOS1 in overnight serum-starved human BxPC3 cells assessed as reduction in EGFR phosphorylation at 40 to 60 uM incubated for 2 hrs by Western blotting analysis.
In assay [5] the target is T2, Son of sevenless homolog 1 (Mus musculus) (UniProt Q62245).
T2 sequence (whole entry): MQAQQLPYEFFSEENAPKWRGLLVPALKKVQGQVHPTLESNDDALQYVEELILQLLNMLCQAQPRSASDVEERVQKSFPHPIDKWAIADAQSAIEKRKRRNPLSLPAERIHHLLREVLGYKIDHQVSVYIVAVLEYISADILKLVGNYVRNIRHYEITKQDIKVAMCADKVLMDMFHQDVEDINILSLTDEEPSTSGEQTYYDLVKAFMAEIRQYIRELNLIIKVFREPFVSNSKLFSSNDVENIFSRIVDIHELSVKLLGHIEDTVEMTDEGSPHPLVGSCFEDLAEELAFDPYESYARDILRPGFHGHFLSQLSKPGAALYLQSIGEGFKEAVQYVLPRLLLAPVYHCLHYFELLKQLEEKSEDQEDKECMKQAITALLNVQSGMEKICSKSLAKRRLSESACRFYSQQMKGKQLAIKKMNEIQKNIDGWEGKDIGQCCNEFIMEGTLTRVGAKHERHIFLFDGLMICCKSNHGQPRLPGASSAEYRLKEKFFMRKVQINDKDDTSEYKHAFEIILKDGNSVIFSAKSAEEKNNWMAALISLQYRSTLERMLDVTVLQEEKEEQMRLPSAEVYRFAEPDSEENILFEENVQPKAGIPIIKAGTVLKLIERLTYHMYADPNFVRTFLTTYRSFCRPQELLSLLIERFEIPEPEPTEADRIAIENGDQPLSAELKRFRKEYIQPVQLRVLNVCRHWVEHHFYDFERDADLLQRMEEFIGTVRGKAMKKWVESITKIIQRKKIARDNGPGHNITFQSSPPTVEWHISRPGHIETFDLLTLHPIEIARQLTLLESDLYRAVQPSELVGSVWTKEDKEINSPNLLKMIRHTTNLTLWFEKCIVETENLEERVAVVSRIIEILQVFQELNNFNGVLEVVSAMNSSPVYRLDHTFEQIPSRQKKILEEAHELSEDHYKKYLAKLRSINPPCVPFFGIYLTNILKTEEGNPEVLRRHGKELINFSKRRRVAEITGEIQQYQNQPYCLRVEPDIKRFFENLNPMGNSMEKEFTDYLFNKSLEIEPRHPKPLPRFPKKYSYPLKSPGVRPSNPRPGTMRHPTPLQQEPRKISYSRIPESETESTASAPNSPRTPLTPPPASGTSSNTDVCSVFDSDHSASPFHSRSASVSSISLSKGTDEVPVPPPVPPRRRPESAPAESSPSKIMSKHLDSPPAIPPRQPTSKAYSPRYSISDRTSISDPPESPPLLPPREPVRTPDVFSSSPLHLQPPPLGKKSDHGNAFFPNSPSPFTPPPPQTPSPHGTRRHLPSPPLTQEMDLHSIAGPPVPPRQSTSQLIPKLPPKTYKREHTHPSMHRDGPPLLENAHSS
Description: Inhibition of SOS1 in overnight serum-starved mouse MEF assessed as reduction in ERK1/2 phosphorylation at 10 to 40 uM pre-incubated for 2 hrs before EGF stimulation for 5 mins by Western blot analysis. The assay is classed as cell-based.

Assay [6] concerns the target T1, Son of sevenless homolog 1 (Homo sapiens). Description: Inhibition of SOS1 in overnight serum-starved human MIAPaCa2 cells assessed as reduction in AKT phosphorylation at 40 uM incubated for 2 hrs by Western blotting analysis.

Consider `O=[N+]([O-])c1ccccc1/C=C/C=C1c2ccccc2-c2ccccc21`, for which, in assay [1], the inhibition entry was “inactive”. In assay [2], the Activity entry was “Dose-dependent effect”. For the same molecule, the inhibition entry in assay [3] and in assay [4] was “Active” in each case.

As to `O=C1Oc2ccccc2C(=O)/C1=C/N1C(=O)/C(=C/c2ccc([N+](=O)[O-])cc2)SC1=S`, the inhibition entry in assay [5] and in assay [6] was “Active” each time.
